# Experimental data taken from ChEMBL document CHEMBL3233012, “Synthesis, antimicrobial and cytotoxic activities of pyrimidinyl benzoxazole, benzothiazole and benzimidazole” (Eur J Med Chem, 2014).
# The source made the active and inactive calls. The rule behind the calls is not given here.
# Assays:
# Staphylococcus aureus [1] = test: Antimicrobial activity against Staphylococcus aureus at 25 ug/well after 24 hrs by agar well diffusion method; type: functional; conditions: read-out: DIZ
# Staphylococcus aureus [2] = test: Antimicrobial activity against Staphylococcus aureus at 50 ug/well after 24 hrs by agar well diffusion method; type: functional; conditions: read-out: DIZ
# Staphylococcus aureus [3] = test: Antimicrobial activity against Staphylococcus aureus at 100 ug/well after 24 hrs by agar well diffusion method; type: functional; conditions: read-out: DIZ
# Escherichia coli [4] = test: Antimicrobial activity against Escherichia coli at 25 ug/well after 24 hrs by agar well diffusion method; type: functional; conditions: read-out: DIZ
# Escherichia coli [5] = test: Antimicrobial activity against Escherichia coli at 50 ug/well after 24 hrs by agar well diffusion method; type: functional; conditions: read-out: DIZ
# Escherichia coli [6] = test: Antimicrobial activity against Escherichia coli at 100 ug/well after 24 hrs by agar well diffusion method; type: functional; conditions: read-out: DIZ
# Pseudomonas aeruginosa [7] = test: Antimicrobial activity against Pseudomonas aeruginosa at 25 ug/well after 24 hrs by agar well diffusion method; type: functional; conditions: read-out: DIZ
# Pseudomonas aeruginosa [8] = test: Antimicrobial activity against Pseudomonas aeruginosa at 50 ug/well after 24 hrs by agar well diffusion method; type: functional; conditions: read-out: DIZ
# Pseudomonas aeruginosa [9] = test: Antimicrobial activity against Pseudomonas aeruginosa at 100 ug/well after 24 hrs by agar well diffusion method; type: functional; conditions: read-out: DIZ
# Aspergillus niger [10] = test: Antimicrobial activity against Aspergillus niger at 25 ug/well after 48 hrs by agar well diffusion method; type: functional; conditions: read-out: DIZ
# Aspergillus niger [11] = test: Antimicrobial activity against Aspergillus niger at 50 ug/well after 48 hrs by agar well diffusion method; type: functional; conditions: read-out: DIZ
# Aspergillus niger [12] = test: Antimicrobial activity against Aspergillus niger at 100 ug/well after 48 hrs by agar well diffusion method; type: functional; conditions: read-out: DIZ
# Penicillium chrysogenum [13] = test: Antimicrobial activity against Penicillium chrysogenum at 25 ug/well after 48 hrs by agar well diffusion method; type: functional; conditions: read-out: DIZ
# Penicillium chrysogenum [14] = test: Antimicrobial activity against Penicillium chrysogenum at 50 ug/well after 48 hrs by agar well diffusion method; type: functional; conditions: read-out: DIZ
# Penicillium chrysogenum [15] = test: Antimicrobial activity against Penicillium chrysogenum at 100 ug/well after 48 hrs by agar well diffusion method; type: functional; conditions: read-out: DIZ
# Staphylococcus aureus [16] = test: Antimicrobial activity against Staphylococcus aureus ATCC 25923 after 24 hrs by broth dilution method; type: functional; conditions: ATCC 25923, 24 h
# Escherichia coli [17] = test: Antimicrobial activity against Escherichia coli ATCC 25922 after 24 hrs by broth dilution method; type: functional; conditions: ATCC 25922, 24 h
# Pseudomonas aeruginosa [18] = test: Antimicrobial activity against Pseudomonas aeruginosa ATCC 27853 after 24 hrs by broth dilution method; type: functional; conditions: ATCC 27853, 24 h
# Aspergillus niger [19] = test: Antimicrobial activity against Aspergillus niger after 24 hrs by broth dilution method; type: functional
# Penicillium chrysogenum [20] = test: Antimicrobial activity against Penicillium chrysogenum after 24 hrs by broth dilution method; type: functional
# Staphylococcus aureus [21] = test: Antimicrobial activity against Staphylococcus aureus ATCC 25923 after 24 hrs; type: functional; conditions: ATCC 25923, 24 h
# Escherichia coli [22] = test: Antimicrobial activity against Escherichia coli ATCC 25922 after 24 hrs; type: functional; conditions: ATCC 25922, 24 h
# Pseudomonas aeruginosa [23] = test: Antimicrobial activity against Pseudomonas aeruginosa ATCC 27853 after 24 hrs; type: functional; conditions: ATCC 27853, 24 h
# Aspergillus niger [24] = test: Antimicrobial activity against Aspergillus niger after 24 hrs; type: functional
# Penicillium chrysogenum [25] = test: Antimicrobial activity against Penicillium chrysogenum after 24 hrs; type: functional
# Penicillium chrysogenum [26] = test: Ratio of MBC to MIC for Penicillium chrysogenum; type: functional
# Escherichia coli [27] = test: Ratio of MBC to MIC for Escherichia coli ATCC 25922; type: functional
# Pseudomonas aeruginosa [28] = test: Ratio of MBC to MIC for Pseudomonas aeruginosa ATCC 27853; type: functional
# Aspergillus niger [29] = test: Ratio of MBC to MIC for Aspergillus niger; type: functional
# A549 = test: Cytotoxicity against human A549 cells assessed as reduction in cell viability up to 200 uM after 20 hrs by MTT assay; type: functional, cell-based
# Staphylococcus aureus [30] = test: Ratio of MBC to MIC for Staphylococcus aureus ATCC 25923; type: functional
Structure (SMILES),zone of inhibition at 25 µg/disc (Staphylococcus aureus [1]) [mm],zone of inhibition at 50 µg/disc (Staphylococcus aureus [2]) [mm],zone of inhibition at 100 µg/disc (Staphylococcus aureus [3]) [mm],zone of inhibition at 25 µg/disc (Escherichia coli [4]) [mm],zone of inhibition at 50 µg/disc (Escherichia coli [5]) [mm],zone of inhibition at 100 µg/disc (Escherichia coli [6]) [mm],zone of inhibition at 25 µg/disc (Pseudomonas aeruginosa [7]) [mm],zone of inhibition at 50 µg/disc (Pseudomonas aeruginosa [8]) [mm],zone of inhibition at 100 µg/disc (Pseudomonas aeruginosa [9]) [mm],zone of inhibition at 25 µg/disc (Aspergillus niger [10]) [mm],zone of inhibition at 50 µg/disc (Aspergillus niger [11]) [mm],zone of inhibition at 100 µg/disc (Aspergillus niger [12]) [mm],zone of inhibition at 25 µg/disc (Penicillium chrysogenum [13]) [mm],zone of inhibition at 50 µg/disc (Penicillium chrysogenum [14]) [mm],zone of inhibition at 100 µg/disc (Penicillium chrysogenum [15]) [mm],MIC (Staphylococcus aureus [16]) [µg/mL],MIC (Escherichia coli [17]) [µg/mL],MIC (Pseudomonas aeruginosa [18]) [µg/mL],MIC (Aspergillus niger [19]) [µg/mL],MIC (Penicillium chrysogenum [20]) [µg/mL],other results
Cc1cc(SCc2nc3ccccc3o2)nc(SCc2nc3ccccc3o2)n1,20,22,23,21,24,29,17,20,22,20,22,24,28,30,33,50,100,100,100,100,MBC (Staphylococcus aureus [21]): > 200 µg/mL; MBC (Escherichia coli [22]): > 200 µg/mL; MBC (Pseudomonas aeruginosa [23]): > 200 µg/mL; MFC (Aspergillus niger [24]): > 200 µg/mL; MFC (Penicillium chrysogenum [25]): > 200 µg/mL; Ratio (Penicillium chrysogenum [26]): >2; Ratio (Escherichia coli [27]): >2; Ratio (Pseudomonas aeruginosa [28]): >2; Ratio (Aspergillus niger [29]): >2; Activity (A549): inactive; Ratio (Staphylococcus aureus [30]): >2
Cc1cc(SCc2nc3ccccc3s2)nc(SCc2nc3ccccc3s2)n1,21,23,25,24,28,30,19,21,24,24,25,28,30,32,35,50,100,50,50,50,MBC (Staphylococcus aureus [21]): 200 µg/mL; MBC (Escherichia coli [22]): > 200 µg/mL; MBC (Pseudomonas aeruginosa [23]): 200 µg/mL; MFC (Aspergillus niger [24]): > 200 µg/mL; MFC (Penicillium chrysogenum [25]): 200 µg/mL; Ratio (Penicillium chrysogenum [26]): >2; Ratio (Escherichia coli [27]): >2; Ratio (Pseudomonas aeruginosa [28]): >2; Ratio (Aspergillus niger [29]): >2; Activity (A549): inactive; Ratio (Staphylococcus aureus [30]): >2
